Data: PMC6736568, “Discovery of Novel Anti-cryptosporidial Activities From Natural Products by in vitro High-Throughput Phenotypic Screening” (Frontiers in Microbiology, 2019)
Where a name gives a salt, the structure may show the parent alone. Read-outs that look alike come from different tables or passages of the source.

Tests used:
Cryptosporidium parvum = experiment: qRT-PCR assay of the growth of C. parvum in vitro in HCT-8 host cells (primary and secondary screening, EC50); format: cell-based; conditions: Cryptosporidium parvum, HCT-8; for inhibition at 10 µM: primary screening at 10 uM, read-out: Inhibition (%); for inhibition at 3.3 µM: secondary screening at 3.3 uM, read-out: % Inhibition (3.3 uM)
in vitro = conditions: for cytotoxicity at 41 h, 10 µM: human
[1] = primary screening at 10 uM, treated vs control

SMILES	Hs18S ΔCT (HCT-8 host cells (Hs18S); human, 41 h, 10 μM)	inhibition at 10 µM (Cryptosporidium parvum)	cytotoxicity at 41 h, 10 µM (in vitro)	Hs18S ΔCT (HCT-8 host cells (Hs18S); [1])	cytotoxicity at 10 µM (in vitro)	Hs18S ΔCT (HCT-8 host cells (Hs18S))	inhibition at 3.3 µM (Cryptosporidium parvum)
O=c1cc(-c2ccccc2)oc2ccc(O)cc12 [6-HYDROXYFLAVONE]	0.08	40%	5.6%	–	–	–	–
C=C(C)[C@@H]1CC[C@]2(C(=O)O)CC[C@]3(C)[C@H](CC[C@@H]4[C@@]5(C)CC[C@H](O)C(C)(C)[C@@H]5CC[C@]43C)[C@@H]12 [BETULINIC ACID]	–	33%	–	-0.23	-17.4%	–	–
CN1C(=O)CC[C@H]1c1cccnc1 [COTININE]	0.41	42.6%	24.7%	–	–	–	–
C[C@]12CC[C@@H](O)C[C@H]1CCc1ccccc12 [3alpha-HYDROXY-4,4-BISNOR-8,11,13-PODOCARPATRIENE]	-0.06	-50.2%	-4.1%	–	–	–	–
COc1c2c(cc3c1OCO3)CC[N+](C)=C2 [COTARNINE CHLORIDE]	-0.20	-14.5%	-15.2%	–	–	–	–
COc1cc(OC)c(-c2c(OC)cc(OC)cc2OC)c(OC)c1 [DIFUCOL HEXAMETHYL ETHER]	–	-10.9%	–	0.08	5.1%	–	–
COc1cc2c(cc1OC)[C@@]13CCN4CC5=CCO[C@H]6CC(=O)N2[C@H]1[C@H]6[C@H]5C[C@H]43 [BRUCINE]	–	49.9%	–	-0.11	-8.2%	–	–
CC(C)=CCOc1cc2oc(=O)ccc2cc1O [PRENYLETIN]	-0.59	-6.72%	-50%	–	–	–	–
C[C@@H]1O[C@@H](O[C@H]2[C@H](Oc3cc(O)c4c(=O)cc(-c5ccc(O)cc5)oc4c3)O[C@H](CO)[C@@H](O)[C@@H]2O)[C@H](O)[C@H](O)[C@H]1O [RHOIFOLIN]	-0.26	54.6%	-20%	–	–	–	–
COc1cc2c(cc1OC)[C@@H]1C(=O)c3ccc4oc(C(C)C)cc4c3O[C@@H]1CO2 [ISOROTENONE]	–	2.53%	–	0.71	38.9%	–	–
CN(C)[C@@H]1C(O)=C(C(N)=O)C(=O)[C@@]2(O)C(O)=C3C(=O)c4c(O)cccc4[C@@](C)(O)[C@H]3C[C@@H]12 [TETRACYCLINE HYDROCHLORIDE]	–	-17.3%	–	–	-24.3%	-0.31	–
Nc1ncnc2c1ncn2[C@@H]1O[C@H](COP(=O)(O)O)[C@@H](O)[C@H]1O [ADENOSINE PHOSPHATE]	-0.16	23.5%	-11.8%	–	–	–	–
CC1(C)O[C@H]2CC(=O)OC[C@]23[C@H]2CC[C@@]4(C)[C@H](c5ccoc5)OC(=O)[C@H]5O[C@]54[C@]2(C)C(=O)C[C@@H]13 [LIMONIN]	-0.12	26.2%	-8.4%	–	–	–	–
O=C(O[C@@H]1Cc2c(O)cc(O)cc2O[C@@H]1c1cc(O)c(=O)c2c(O)c(O)cc([C@H]3Oc4cc(O)cc(O)c4C[C@H]3O)c2c1)c1cc(O)c(O)c(O)c1 [THEAFLAVIN MONOGALLATES]	-0.10	25.6%	-7.4%	–	–	–	–
NC(=O)NCCC[C@H](N)C(=O)O [CITRULLINE]	–	-44.7%	–	0.62	34.9%	–	–
CC(=O)Oc1c2c(c(CC=C(C)C)c3c1C(=O)C1=C[C@@H]4CC5C(C)(C)OC(C/C=C(\C)C(=O)O)(C4=O)[C@@]15O3)OC(C)(CCC=C(C)C)C=C2 (stereo partly shown) [ACETYL I[…]]	–	95.2%	–	1.57	66.4%	–	27%
C[n+]1cc2c3c(ccc2c2ccc4cc5c(cc4c21)OCO5)OCO3 [SANGUINARINE SULFATE]	–	18.6%	–	0.07	4.9%	–	–
Cc1cc(O)c(C)c(O)c1C(=O)O [3-METHYLORSELLINIC ACID]	0.05	30.8%	3.6%	–	–	–	–
C=CCCCCCCCCCCCC(O)CC(O)COC(C)=O (stereo not shown) [AVOCATIN A]	0.00	46%	-0.1%	–	–	–	–
O=C1C=C2CC3(O)COc4cc(O)ccc4C3=C2C=C1O (stereo not shown) [BRAZILEIN]	0.03	-12.2%	2.2%	–	–	–	–

SMILES	Hs18S ΔCT (HCT-8 host cells (Hs18S); human, 41 h, 10 μM)	inhibition at 10 µM (Cryptosporidium parvum)	cytotoxicity at 41 h, 10 µM (in vitro)	Hs18S ΔCT (HCT-8 host cells (Hs18S); [1])	cytotoxicity at 10 µM (in vitro)	Hs18S ΔCT (HCT-8 host cells (Hs18S))	inhibition at 3.3 µM (Cryptosporidium parvum)
CCCCCCCCCCCCCCCC(=O)OCC(O)CO (stereo not shown) [1-MONOPALMITIN]	-0.10	14.2%	-7.1%	–	–	–	–
NCCc1c[nH]c2ccc(O)cc12 [SEROTONIN HYDROCHLORIDE]	–	10.2%	–	-0.40	-31.7%	–	–
OC[C@H]1O[C@@](CO)(O[C@H]2O[C@H](CO)[C@@H](O)[C@H](O)[C@H]2O)[C@@H](O[C@H]2O[C@H](CO)[C@@H](O)[C@H](O)[C@H]2O)[C@@H]1O [MELEZITOSE]	-0.18	-16.8%	-13%	–	–	–	–
O=c1c(O)c(-c2ccc(O)c(O)c2)oc2cc(O)cc(O)c12 [QUERCETIN]	–	78.4%	–	0.34	21.1%	–	-27%
O=C(O)/C=C/C=C/c1ccccc1 [JUAREZIC ACID]	-0.57	-55.9%	-48.4%	–	–	–	–
NCCc1c[nH]c2ccccc12 [TRYPTAMINE]	–	95.5%	–	-0.43	-34.7%	–	12%
COc1cc(O)c(C(C)=O)c(OC)c1 [XANTHOXYLIN]	0.08	-20.7%	5.4%	–	–	–	–
Cc1c(C)c2c(c(C)c1O)CCC(C)(CCCC(C)CCCC(C)CCCC(C)C)O2 (stereo not drawn) [alpha-TOCHOPHEROL]	–	-14.7%	–	0.21	13.8%	–	–
C/C=C1\[C@H]2C=C(C)C[C@]1(N)c1ccc(=O)[nH]c1C2 [HUPERZINE A]	–	37.6%	–	0.19	12.4%	–	–
COc1ccc(C(=O)CC(=O)O)c2c1C=CC(C)(C)O2 [URSINOIC ACID]	-0.46	14.2%	-37.5%	–	–	–	–
COc1cc2c(cc1OC)[C@@H]1C(=O)c3ccc4c(c3O[C@@H]1CO2)CC(C(C)C)O4 (stereo partly shown) [DIHYDROROTENONE]	–	10.4%	–	0.76	40.9%	–	–
CC1=C2[C@H]3OC(=O)[C@@H](C)[C@@H]3CC[C@@]2(C)C=CC1=O [SANTONIN]	–	9.41%	–	0.18	11.8%	–	–
C=CC[C@@H]1/C=C(\C)C[C@H](C)C[C@H](OC)[C@H]2O[C@@](O)(C(=O)C(=O)N3CCCC[C@H]3C(=O)O[C@H](/C(C)=C/[C@@H]3CC[C@@H](O)[C@H](OC)C3)[C@H](C)[C@@H](O)CC1=O)[C@H](C)C[C@@H]2OC [TACROLIMUS]	0.16	75.6%	10.4%	–	–	–	-14%
CC1(C)CC[C@]2(C)CC[C@]3(C)C(=CC[C@@H]4[C@@]5(C)CC[C@H](O)C(C)(C)[C@@H]5CC[C@]43C)[C@@H]2C1 [beta-AMYRIN]	–	-38.2%	–	-0.12	-8.3%	–	–
OCC(O)C(O)C(O)C(O)C(O)CO (stereo not shown) [PERSEITOL]	-0.23	11.3%	-17.1%	–	–	–	–
Cc1nccc2c1[nH]c1cc(O)ccc12 [HARMOL HYDROCHLORIDE]	–	-55.1%	–	-0.14	-10.1%	–	–
CC1(C)[C@@H](O)CC[C@]2(C)[C@H]3C(=O)C=C4[C@H]5C[C@@](C)(C(=O)O)CC[C@]5(C)CC[C@@]4(C)[C@]3(C)CC[C@@H]12	–	-12.7%	–	-0.01	-0.5%	–	–
C[C@@H]1O[C@@H](O[C@H]2[C@H](Oc3cc(O)c4c(c3)O[C@H](c3ccc(O)cc3)CC4=O)O[C@H](CO)[C@@H](O)[C@@H]2O)[C@H](O)[C@H](O)[C@H]1O [NARINGIN]	0.16	2.06%	10.4%	–	–	–	–
O=c1cc[nH]c(=O)[nH]1 [URACIL]	–	2.08%	-21.4%	-0.28	–	–	–
